What follows are molecules tested against T1, gastrin (CCK2) receptors (Rattus norvegicus, UniProt P30553) (assay: gastrin (CCK2) antagonist activity in an immature rat stomach assay). Details: pentagastrin dose-response curves, acid secretion, read-out: pKB rat stomach (converted).
T1 construct: The stomach was excised and flushed with ca. 1 ml of unbuffered physiological saline solution; from tissue; host or cells: isolated whole stomach of immature rats (ca. 21 days old)
T1 sequence (P30553 1-452): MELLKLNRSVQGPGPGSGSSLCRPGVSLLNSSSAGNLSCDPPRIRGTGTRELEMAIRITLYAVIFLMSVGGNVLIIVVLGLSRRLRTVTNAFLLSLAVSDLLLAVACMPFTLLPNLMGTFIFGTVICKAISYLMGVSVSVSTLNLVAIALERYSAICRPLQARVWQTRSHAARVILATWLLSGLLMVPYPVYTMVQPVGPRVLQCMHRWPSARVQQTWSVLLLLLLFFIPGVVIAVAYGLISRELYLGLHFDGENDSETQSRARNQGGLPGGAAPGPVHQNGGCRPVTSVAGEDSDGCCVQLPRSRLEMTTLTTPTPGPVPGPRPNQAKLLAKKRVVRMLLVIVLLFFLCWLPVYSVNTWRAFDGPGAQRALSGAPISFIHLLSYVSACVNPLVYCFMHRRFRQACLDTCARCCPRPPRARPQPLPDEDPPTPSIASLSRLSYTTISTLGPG
Description: The compounds of the examples were tested for gastrin (CCK2) antagonist activity in an immature rat stomach assay. The procedure was as follows:
The oesophagus of immature rats (33-50 g, ca. 21 days old) was ligated at the level of the cardiac sphincter and the duodenal sphincter was cannulated. The stomach was excised and flushed with ca. 1 ml of unbuffered physiological saline solution. The fundus was punctured and cannulated. A further 4-5 ml of unbuffered solution was flushed through the stomach to ensure the preparation was not leaking. […] The stomach was continuously perfused at a rate of 1 ml min^−1 with unbuffered solution gassed with 100% O2 with the perfusate passing over an internally referenced pH-electrode fixed 12 cm above the stomach.
After 120 min of stabilisation the drugs were added directly to the serosal solution in the organ bath and after a further 60 min cumulative pentagastrin dose-response curves were started.

SMILES | Kb
CC(C)(C)OC(=O)CN1C(=O)N(CC(=O)Nc2cccc(C(=O)O)c2)N=C(C2CCCCC2)c2ccccc21 [Example 95, 3-[2-(1-tert-Butoxycarbonylmethyl-5-cyclohexyl-2-oxo-1,2-dihydro-3H-1,3,4-benzotriazepin-3-yl)-acetylamino]-benzoic acid] | 3.98 nM
COc1ccc(NC(=O)CN2N=C(C3CCCCC3)c3ccccc3N(CC(=O)C(C)(C)C)C2=O)cc1 [Example 32, 2-[5-Cyclohexyl-1-(3,3-dimethyl-2-oxo-butyl)-2-oxo-1,2-dihydro-3H-1,3,4-benzotriazepin-3-yl]-N-(4-methoxy-phenyl)-acetamide] | 77.6 nM
O=C(O)CCCc1cccc(NC(=O)CN2N=C(C3CCCCC3)c3ccccc3N(CC(=O)C3CCCC3)C2=O)c1 [Example 159] | 1.26 nM
CC(C)(C)C(=O)CN1C(=O)N(CC(=O)Nc2cccc(NC(=O)CCC(=O)O)c2)N=C(C2CCCCC2)c2ccccc21 [Example 66, N-(3-{2-[5-Cyclohexyl-1-(3,3-dimethyl-2-oxo-butyl)-2-oxo-1,2-dihydro-3H-1,3,4-benzotriazepin-3-yl]-acetylamino}-phenyl)-succinamic acid] | 74.1 nM
CNc1ccccc1NC(=O)CN1N=C(C2CCCCC2)c2ccccc2N(CC(=O)C(C)(C)C)C1=O [Example 101, 2-[5-Cyclohexyl-1-(3,3-dimethyl-2-oxo-butyl)-2-oxo-1,2-dihydro-3H-1,3,4-benzotriazepin-3-yl]-N-(2-methylamino-phenyl)-acetamide] | 129 nM
CC(C)(C)C(=O)CN1C(=O)N(CC(=O)Nc2cccc(/C=C3\SC(=O)NC3=O)c2)N=C(C2CCCCC2)c2ccccc21 [Example 147, 2-[5-Cyclohexyl-1-(3,3-dimethyl-2-oxo-butyl)-2-oxo-1,2-dihydro-3H-1,3,4-benzotriazepin-3-yl]-N-[3-(2,4-dioxo-thiazolidin-5-ylidenemethyl)-phenyl]-acetamide] | 8.32 nM
O=C(CN1N=C(C2CCCCC2)c2ccccc2N(CC(=O)C2CCCC2)C1=O)Nc1cccc(-c2ccc(C(=O)O)o2)c1 [Example 149] | 1.1 nM
CNc1cccc(NC(=O)NCN2N=C(c3ccccn3)c3ccccc3N(CC(=O)C(C)(C)C)C2=O)c1 [Example 8, 1-[1-(3,3-Dimethyl-2-oxo-butyl)-2-oxo-5-pyridin-2-yl-1,2-dihydro-3H-1,3,4-benzotriazepin-3-ylmethyl]-3-(3-methylamino-phenyl)-urea] | 263 nM
CC(C)(C)C(=O)CN1C(=O)N(CC(=O)Nc2cccc(-c3nn[nH]n3)c2)N=C(C2CCCC2)c2ccccc21 [Example 10, 2-[5-Cyclopentyl-1-(3,3-dimethyl-2-oxo-butyl)-2-oxo-1,2-dihydro-3H-1,3,4-benzotriazepin-3-yl]-[3-(2H-tetrazol-5-yl)-phenyl]-acetamide] | 89.1 nM
CC(C)CCN1C(=O)N(CC(=O)Nc2cccc(C(=O)O)c2)N=C(C2CCCCC2)c2ccccc21 [Example 16, 3-{2-[5-Cyclohexyl-1-(3-methyl-butyl)-2-oxo-1,2-dihydro-3H-1,3,4-benzotriazepin-3-yl]-acetylamino}-benzoic acid] | 42.7 nM
CC(C)(C)C(=O)CN1C(=O)N(CC(=O)Nc2cccc(C(=O)O)c2)N=C(C2CCCCC2)c2c(F)cccc21 [Example 113, 3-{2-[5-Cyclohexyl-1-(3,3-dimethyl-2-oxo-butyl)-6-fluoro-2-oxo-1,2-dihydro-3H-1,3,4-benzotriazepin-3-yl]-acetylamino}-benzoic acid] | 6.03 nM
CC(C)(CO)C(=O)CN1C(=O)N(CC(=O)Nc2cccc(CC(=O)O)c2)N=C(C2CCCCC2)c2ccccc21 [Example 110, (3-{2-[5-Cyclohexyl-1-(4-hydroxy-3,3-dimethyl-2-oxo-butyl)-2-oxo-1,2-dihydro-3H-1,3,4-benzotriazepin-3-yl]-acetylamino}-phenyl)-acetic acid] | 93.3 nM
CCOCCNc1cccc(NC(=O)CN2N=C(C3CCCCC3)c3ccccc3N(CC(=O)C(C)(C)C)C2=O)c1 [Example 42, 2-[5-Cyclohexyl-1-(3,3-dimethyl-2-oxo-butyl)-2-oxo-1,2-dihydro-3H-1,3,4-benzotriazepin-3-yl]-N-[3-(2-ethoxy-ethylamino)-phenyl)-acetamide] | 105 nM
CC(C)(C)C(=O)CN1C(=O)N(CC(=O)Nc2cccc(-c3ccc(C(=O)O)s3)c2)N=C(C2CCCCC2)c2ccccc21 [Example 157, 5-(3-{2-[5-Cyclohexyl-1-(3,3-dimethyl-2-oxo-butyl)-2-oxo-1,2-dihydro-3H-1,3,4-benzotriazepin-3-yl]-acetylamino}-phenyl)-thiophene-2-carboxylic acid] | 7.76 nM
CN(C)c1cccc(NC(=O)CN2N=C(C3CCCCC3)c3ccccc3N(CC(=O)C(C)(C)C)C2=O)c1 [Example 33, 2-[5-Cyclohexyl-J-(3,3-dimethyl-2-oxo-butyl)-2-oxo-1,2-dihydro-3H-1,3,4-benzotriazepin-3-yl]-N-(3-dimethylamino-phenyl)-acetamide] | 91.2 nM

Now from value to molecule:

Kb | SMILES
4.37 nM | O=C(CN1N=C(C2CCCCC2)c2ccccc2N(CC(=O)C2CCCC2)C1=O)Nc1cccc(-c2nnn[nH]2)c1 [Example 125, 2-[5-Cyclohexyl-1-(2-cyclopentyl-2-oxo-ethyl)-2-oxo-1,2-dihydro-3H-1,3,4-benzotriazepin-3-yl]-N-[3-(2H-tetrazol-5-yl)-phenyl]-acetamide]
117 nM | CNCCN(C)c1cccc(NC(=O)CN2N=C(C3CCCCC3)c3ccccc3N(CC(=O)C(C)(C)C)C2=O)c1 [Example 143, 2-[5-Cyclohexyl-1-(3,3-dimethyl-2-oxo-butyl)-2-oxo-1,2-dihydro-3H-1,3,4-benzotriazepin-3-yl]-N-{3-[methyl-(2-methylamino-ethyl)-amino]-phenyl}-acetamide]
24.5 nM | O=C(O)Cc1cccc(NC(=O)CN2N=C(C3CCCCC3)c3ccccc3N(CC(=O)C3CC3)C2=O)c1 [Example 119]
1.17 nM | CNc1cccc(NC(=O)CN2N=C(C3CCCCC3)c3ccccc3N(CC(=O)C3CCCC3)C2=O)c1 [Example 57, 2-[5-Cyclohexyl-1-(2-cyclopentyl-2-oxo-ethyl)-2-oxo-1,2-dihydro-3H-1,3,4-benzotriazepin-3-yl]-N-(3-methylaminophenyl)-acetamide]
2.14 nM | CN(c1cccc(NC(=O)CN2N=C(C3CCCCC3)c3ccccc3N(CC(=O)C3CCCC3)C2=O)c1)c1nnn[nH]1 [Example 124, 2-[5-Cyclohexyl-1-(2-cyclopentyl-2-oxo-ethyl)-2-oxo-1,2-dihydro-3H-1,3,4-benzotriazepin-3-yl]-N-(3-[methyl-(2H-tetrazol-5-yl)-amino]-phenyl)-acetamide]
3.39 nM | O=C(O)Cc1cccc(NC(=O)CN2N=C(C3CCCCC3)c3ccccc3N(CC(=O)C3CCCCC3)C2=O)c1 [Example 80, (3-{2-[5-Cyclohexyl-1-(2-cyclohexyl-2-oxo-ethyl)-2-oxo-1,2-dihydro-3H-1,3,4-benzotriazepin-3-yl]-acetylamino}-phenyl)-acetic acid]
100 nM | CC(C)(C)C(=O)CN1C(=O)N(CC(=O)Nc2cccc(CSC(=N)N)c2)N=C(C2CCCCC2)c2ccccc21 [Example 49, N-(3-Carbamimidoylsulfanylmethyl-phenyl)-2-[5-cyclohexyl-1-(3,3-dimethyl-2-oxo-butyl)-2-oxo-1,2-dihydro-3H-1,3,4-benzotriazepin-3-yl]-acetamide]

From patent US20050026911A1, “Benzotriazapinone salts and methods for using same” (priority 2003, published 2005)
